Key:
[1] = target: T1, human TLR7 (wild type sequence) (Homo sapiens, UniProt Q9NYK1); experiment: TLR7 cellular NFκB-luc reporter assay, wild type TLR7; type: cell-based; set-up: unit not given here; conditions: lowest effective concentration, wild type TLR7 (compounds 74 onward)
T1 construct: expressed in transfected cells; host or cells: HEK293
T1 sequence (Q9NYK1 27-1049): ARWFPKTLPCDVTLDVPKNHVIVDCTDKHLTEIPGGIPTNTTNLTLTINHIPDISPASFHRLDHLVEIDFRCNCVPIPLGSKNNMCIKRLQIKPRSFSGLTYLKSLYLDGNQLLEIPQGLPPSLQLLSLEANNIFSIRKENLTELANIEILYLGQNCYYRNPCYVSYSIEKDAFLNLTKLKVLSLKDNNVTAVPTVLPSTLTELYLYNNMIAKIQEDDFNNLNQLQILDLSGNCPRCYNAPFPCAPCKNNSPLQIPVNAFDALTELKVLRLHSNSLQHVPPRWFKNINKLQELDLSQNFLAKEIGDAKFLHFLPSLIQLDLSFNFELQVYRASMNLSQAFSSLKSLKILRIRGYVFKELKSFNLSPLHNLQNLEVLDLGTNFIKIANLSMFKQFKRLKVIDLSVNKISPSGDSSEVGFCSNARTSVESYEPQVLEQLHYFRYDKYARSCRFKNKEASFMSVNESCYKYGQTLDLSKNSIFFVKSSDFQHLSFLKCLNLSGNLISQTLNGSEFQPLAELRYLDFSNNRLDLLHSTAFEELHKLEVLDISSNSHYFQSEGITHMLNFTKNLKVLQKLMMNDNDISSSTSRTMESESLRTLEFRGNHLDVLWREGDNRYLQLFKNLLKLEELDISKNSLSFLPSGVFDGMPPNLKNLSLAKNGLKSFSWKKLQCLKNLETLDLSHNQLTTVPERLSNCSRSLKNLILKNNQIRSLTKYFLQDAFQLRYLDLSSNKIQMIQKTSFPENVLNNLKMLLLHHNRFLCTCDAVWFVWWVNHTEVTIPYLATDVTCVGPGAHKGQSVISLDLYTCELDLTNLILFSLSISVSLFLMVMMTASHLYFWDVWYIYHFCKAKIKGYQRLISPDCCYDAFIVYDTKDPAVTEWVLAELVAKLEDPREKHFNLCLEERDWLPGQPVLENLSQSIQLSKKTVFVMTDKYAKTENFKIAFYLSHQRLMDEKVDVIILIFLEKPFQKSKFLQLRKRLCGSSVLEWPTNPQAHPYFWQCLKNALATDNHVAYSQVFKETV
Method in brief: (§1)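 Luciferase signal read after 6 h compound incubation at 37 °C in HEK293 cells carrying transiently transfected TLR7 or TLR8 (wild type or LRR2-deletion) and NFκB-luc. Values are lowest effective concentrations from quadruplicate dose-response curves, effect ≥2-fold above assay SD.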

[2] = target: T2, human TLR8 (wild type sequence) (Homo sapiens, UniProt Q9NR97); experiment: TLR8 cellular NFκB-luc reporter assay, wild type TLR8; type: cell-based; set-up: unit not given here; conditions: lowest effective concentration, wild type TLR8 (compounds 74 onward)
T2 construct: expressed in transfected cells; host or cells: HEK293
T2 sequence (Q9NR97 27-1041): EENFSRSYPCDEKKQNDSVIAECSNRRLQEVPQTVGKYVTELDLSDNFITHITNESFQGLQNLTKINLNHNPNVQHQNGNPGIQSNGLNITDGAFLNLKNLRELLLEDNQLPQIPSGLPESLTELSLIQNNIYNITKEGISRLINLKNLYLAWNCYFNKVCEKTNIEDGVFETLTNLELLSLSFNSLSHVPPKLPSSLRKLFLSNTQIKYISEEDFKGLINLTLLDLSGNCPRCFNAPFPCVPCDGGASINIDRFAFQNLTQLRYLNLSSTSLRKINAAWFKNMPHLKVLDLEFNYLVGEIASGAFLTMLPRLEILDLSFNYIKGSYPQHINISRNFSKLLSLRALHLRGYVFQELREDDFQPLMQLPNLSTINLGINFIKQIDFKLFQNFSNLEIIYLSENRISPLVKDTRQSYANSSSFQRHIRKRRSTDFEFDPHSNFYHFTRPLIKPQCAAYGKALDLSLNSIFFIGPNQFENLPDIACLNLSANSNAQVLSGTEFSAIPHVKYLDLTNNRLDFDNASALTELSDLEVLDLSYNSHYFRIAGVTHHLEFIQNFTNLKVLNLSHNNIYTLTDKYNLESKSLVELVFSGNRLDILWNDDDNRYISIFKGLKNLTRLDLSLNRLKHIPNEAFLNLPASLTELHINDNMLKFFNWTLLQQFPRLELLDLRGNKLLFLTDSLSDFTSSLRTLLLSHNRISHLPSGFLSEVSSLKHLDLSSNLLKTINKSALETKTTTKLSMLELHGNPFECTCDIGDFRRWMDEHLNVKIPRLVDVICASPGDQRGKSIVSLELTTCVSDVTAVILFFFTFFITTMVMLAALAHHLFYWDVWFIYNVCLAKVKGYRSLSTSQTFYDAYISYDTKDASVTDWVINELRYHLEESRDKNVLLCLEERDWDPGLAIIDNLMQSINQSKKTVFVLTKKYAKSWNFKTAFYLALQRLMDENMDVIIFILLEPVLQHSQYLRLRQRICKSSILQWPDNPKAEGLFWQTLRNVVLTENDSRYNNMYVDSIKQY
Method in brief: as §1

[3] = system: HCV replicon in Huh-7 luc/neo cells; experiment: Suppression of HCV replicon replication by conditioned media from compound-treated PBMC; type: cell-based, HCV type 1 b; conditions: Hepatitis C virus; conditioned media from compound-treated PBMC on Huh-7 luc/neo replicon cells (compounds 74 onward); read-out: PBMC HUH-7 EC50
Method in brief: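 Readout is firefly luciferase from an HCV genotype 1b NS3-NS5B bicistronic replicon in Huh-7 cells, measured 24 h after adding conditioned medium. That medium came from overnight culture of compound-treated PBMC (2×10^5/well, human AB serum, at least two donors). Interferon α-2a was the reference.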

In the case of `CCCCNc1nc(N)ncc1OCCOc1ccccc1C(F)(F)F` [Compound 131], the “TLR 7 wt LEC” value [1] is reported as 1.700, the “TLR 8 wt LEC” value [2] is reported as greater than 25 and the EC50 [3] is reported as 806 nM.

For `CCCCNc1nc(N)ncc1OCc1ccccn1` [Compound 101], the “TLR 7 wt LEC” value [1] was 0.277, the “TLR 8 wt LEC” value [2] was 0.597 and the EC50 [3] was 55 nM.

`CCCC[C@@H](CO)Nc1nc(N)ncc1OCCCc1ccccc1` [Compound 154] was tested, and the “TLR 7 wt LEC” value [1] was 3.710, the “TLR 8 wt LEC” value [2] was 2.960 and the EC50 [3] was 3020 nM.

For `CCCCNc1nc(N)ncc1OCCOc1ccc(C(=O)OC)cc1OC` [Compound 132], the “TLR 7 wt LEC” value [1] was 1.470, the “TLR 8 wt LEC” value [2] was greater than 25 and the EC50 [3] was 634 nM.

For `CCCCNc1nc(N)ncc1OCCOc1ccc(OC)c(OC)c1` [Compound 140], the “TLR 7 wt LEC” value [1] was 0.617, the “TLR 8 wt LEC” value [2] was 2.250 and the EC50 [3] was 175 nM.

In the case of `CCCCNc1nc(N)ncc1OCCOc1ccncc1` [Compound 84], the “TLR 7 wt LEC” value [1] is reported as 0.860, the “TLR 8 wt LEC” value [2] is reported as 0.250 and the EC50 [3] is reported as 76 nM.

`CCCCNc1nc(N)ncc1OCc1cccc(C)n1` [Compound 122] was tested, and the “TLR 7 wt LEC” value [1] was 0.118, the “TLR 8 wt LEC” value [2] was 0.628 and the EC50 [3] was 25 nM.

With `CCCCNc1nc(N)ncc1OCCOc1ccnc2ccccc12` [Compound 128] the “TLR 7 wt LEC” value [1] was 2.430, the “TLR 8 wt LEC” value [2] was 3.740 and the EC50 [3] was 284 nM.

With `CCCC[C@H](Nc1nc(N)ncc1OCCCc1ccccc1)C(=O)OC` [Compound 82] the “TLR 7 wt LEC” value [1] was 4.420, the “TLR 8 wt LEC” value [2] was 13.590 and the EC50 [3] was 14000 nM.

In the case of `CCCCNc1nc(N)ncc1OCc1nn(C)c(C)c1N` [Compound 85], the “TLR 7 wt LEC” value [1] is reported as 0.509, the “TLR 8 wt LEC” value [2] is reported as 2.960 and the EC50 [3] is reported as 209 nM.

With `CCCCNc1nc(N)ncc1OCc1cc(C(F)(F)F)n(C)n1` [Compound 181] the “TLR 7 wt LEC” value [1] was 0.146, the “TLR 8 wt LEC” value [2] was 1.210 and the EC50 [3] was 96 nM.

`CC[C@H](C)[C@@H](CO)Nc1nc(N)ncc1OCCCc1ccccc1` [Compound 115] was tested, and the “TLR 7 wt LEC” value [1] was 6.180, the “TLR 8 wt LEC” value [2] was 6.510 and the EC50 [3] was 3730 nM.

In the case of `CCC[C@H](CCO)Nc1nc(N)ncc1OCc1ccccc1` [Compound 190], the “TLR 7 wt LEC” value [1] is reported as 8.620, the “TLR 8 wt LEC” value [2] is reported as 4.330 and the EC50 [3] is reported as 3230 nM.

`CCCC[C@@H](CCO)Nc1nc(N)ncc1OCc1ccc2ccccc2n1` [Compound 186] was tested, and the “TLR 7 wt LEC” value [1] was 0.122, the “TLR 8 wt LEC” value [2] was 0.680 and the EC50 [3] was 65 nM.

For `CCCCNc1nc(N)ncc1OCCOc1ccnc2ccsc12` [Compound 136], the “TLR 7 wt LEC” value [1] was 2.000, the “TLR 8 wt LEC” value [2] was 2.030 and the EC50 [3] was 275 nM.

With `CCCCNc1nc(N)ncc1OCCC(c1ccccc1)c1ccccc1` [Compound 167] the “TLR 7 wt LEC” value [1] was 1.200, the “TLR 8 wt LEC” value [2] was greater than 25 and the EC50 [3] was 764 nM.

In the case of `CCCCCNc1nc(N)ncc1OC(C)c1ccccc1` (stereo not drawn) [Compound 96], the “TLR 7 wt LEC” value [1] is reported as greater than 25, the “TLR 8 wt LEC” value [2] is reported as 6.340 and the EC50 [3] is reported as 4310 nM.

With `CCCCNc1nc(N)ncc1OCCCc1ccc2c(c1)OCO2` [Compound 151] the “TLR 7 wt LEC” value [1] was 0.431, the “TLR 8 wt LEC” value [2] was 1.860 and the EC50 [3] was 188 nM.

In the case of `CCCCNc1nc(N)ncc1OCCCc1ccc(Cl)cc1` [Compound 109], the “TLR 7 wt LEC” value [1] is reported as 0.790, the “TLR 8 wt LEC” value [2] is reported as 2.230 and the EC50 [3] is reported as 393 nM.

`CCCCNc1nc(N)ncc1OCc1cc(OC2CCOC2)c(OC)cn1` (stereo not drawn) [Compound 174] was tested, and the “TLR 7 wt LEC” value [1] was 0.447, the “TLR 8 wt LEC” value [2] was 2.610 and the EC50 [3] was 52 nM.

`CCCCNc1nc(N)ncc1OCc1ccc(C(=O)OC)o1` [Compound 120] was tested, and the “TLR 7 wt LEC” value [1] was 0.649, the “TLR 8 wt LEC” value [2] was 3.910 and the EC50 [3] was 273 nM.

In the case of `CCCCNc1nc(N)ncc1OCc1cc(OCC2CC2)c(OC)cn1` [Compound 175], the “TLR 7 wt LEC” value [1] is reported as 0.367, the “TLR 8 wt LEC” value [2] is reported as 2.480 and the EC50 [3] is reported as 167 nM.

`CCCC(C)Nc1nc(N)ncc1OCc1ccc2ccccc2n1` (stereo not drawn) [Compound 185] was tested, and the “TLR 7 wt LEC” value [1] was 0.743, the “TLR 8 wt LEC” value [2] was 2.340 and the EC50 [3] was 488 nM.

In the case of `CCCC[C@@H](CCO)Nc1nc(N)ncc1OCCCc1ccccc1` [Compound 113], the “TLR 7 wt LEC” value [1] is reported as 0.433, the “TLR 8 wt LEC” value [2] is reported as 2.240 and the EC50 [3] is reported as 251 nM.

In the case of `CCC[C@@H](CCO)Nc1nc(N)ncc1OCCCc1ccccc1` [Compound 165], the “TLR 7 wt LEC” value [1] is reported as 0.683, the “TLR 8 wt LEC” value [2] is reported as 1.800 and the EC50 [3] is reported as 187 nM.

— patent publication US11541050B2, “Pyrimidine derivatives for the treatment of viral infections” (JANSSEN SCIENCES IRELAND UC, priority 2011, dated 2023)
